Results as given in the NIST ThermoML archive (doi:10.1021/je060271a).

Details: Liquid, Vibrating tube method

CCCCCCC(=O)OCC(COC(=O)CCCCCC)(COC(=O)CCCCCC)COC(=O)CCCCCC [pentaerythritol tetraheptanoate]
Details	mass density [kg/m3]
303.14 K, 15632 kPa	980.3
303.14 K, 15661 kPa	980.3
303.14 K, 15697 kPa	980.2
303.14 K, 15727 kPa	980.3
303.14 K, 15793 kPa	980.4
303.14 K, 15884 kPa	980.5
303.14 K, 15938 kPa	980.5
303.14 K, 16023 kPa	980.5
303.14 K, 16056 kPa	980.5
303.14 K, 16112 kPa	980.6
303.14 K, 16138 kPa	980.6
303.14 K, 16199 kPa	980.7
303.14 K, 16259 kPa	980.6
303.14 K, 16286 kPa	980.6
303.14 K, 16377 kPa	980.7
303.14 K, 16405 kPa	980.8
303.14 K, 16470 kPa	980.7
303.14 K, 16655 kPa	981
303.14 K, 16744 kPa	980.9
303.14 K, 16780 kPa	980.9
303.14 K, 16840 kPa	981
303.14 K, 16876 kPa	981
303.14 K, 17172 kPa	981.2
303.14 K, 17203 kPa	981.2
303.14 K, 17235 kPa	981.3
303.14 K, 17267 kPa	981.3
303.14 K, 17439 kPa	981.4
303.14 K, 17478 kPa	981.3
303.14 K, 17511 kPa	981.3
303.14 K, 17543 kPa	981.3
303.14 K, 17576 kPa	981.4
303.14 K, 17615 kPa	981.3
303.14 K, 17648 kPa	981.5
303.14 K, 17688 kPa	981.4
303.14 K, 17722 kPa	981.5
303.14 K, 18010 kPa	981.6
303.14 K, 18086 kPa	981.7
303.14 K, 18423 kPa	981.9
303.14 K, 18547 kPa	981.9
303.14 K, 18582 kPa	981.9
303.14 K, 18643 kPa	982
303.14 K, 18679 kPa	981.9
303.14 K, 18709 kPa	982
303.14 K, 18745 kPa	982.1
303.14 K, 18776 kPa	982
303.14 K, 18806 kPa	982
303.14 K, 18836 kPa	982.2
303.14 K, 18874 kPa	982.1
303.14 K, 18904 kPa	982.1
303.14 K, 19140 kPa	982.3
303.14 K, 19172 kPa	982.2
303.14 K, 19205 kPa	982.4
303.14 K, 19237 kPa	982.3
303.14 K, 19276 kPa	982.4
303.14 K, 19309 kPa	982.5
303.14 K, 19518 kPa	982.4
303.14 K, 19558 kPa	982.6
303.14 K, 19592 kPa	982.5
303.14 K, 19625 kPa	982.6
303.14 K, 19666 kPa	982.5
303.14 K, 19700 kPa	982.5
303.14 K, 19734 kPa	982.6
303.14 K, 19808 kPa	982.7
303.14 K, 19842 kPa	982.6
303.14 K, 19884 kPa	982.6
303.14 K, 20108 kPa	982.9
303.14 K, 20178 kPa	982.8
303.14 K, 20221 kPa	982.9
303.14 K, 20257 kPa	982.9
303.14 K, 20293 kPa	982.9
303.14 K, 20850 kPa	983.3
303.14 K, 20889 kPa	983.2
303.14 K, 21395 kPa	983.7
303.14 K, 21485 kPa	983.6
303.14 K, 21938 kPa	983.8
303.14 K, 21981 kPa	983.8
303.14 K, 22061 kPa	983.9
303.14 K, 22488 kPa	984.1
303.14 K, 22529 kPa	984.1
303.14 K, 22605 kPa	984.2
303.14 K, 22942 kPa	984.4
303.14 K, 22983 kPa	984.4
303.14 K, 23655 kPa	984.8
303.14 K, 23688 kPa	984.8
303.14 K, 23722 kPa	984.7
303.14 K, 23763 kPa	984.8
303.14 K, 24089 kPa	985
303.14 K, 24131 kPa	985.1
303.14 K, 24166 kPa	985.1
303.14 K, 24356 kPa	985.1
303.14 K, 28039 kPa	987.2
303.14 K, 29427 kPa	988
303.15 K, 11258 kPa	977.6
303.15 K, 11434 kPa	977.8
303.15 K, 11462 kPa	977.7
303.15 K, 11546 kPa	977.9
303.15 K, 11738 kPa	978
303.15 K, 13121 kPa	978.8
303.15 K, 13570 kPa	979
303.15 K, 13874 kPa	979.2
303.15 K, 13902 kPa	979.2
303.15 K, 13922 kPa	979.2
303.15 K, 13972 kPa	979.4
303.15 K, 14222 kPa	979.5
303.15 K, 14324 kPa	979.5
303.15 K, 14456 kPa	979.6
303.15 K, 14482 kPa	979.7
303.15 K, 14511 kPa	979.6
303.15 K, 14536 kPa	979.7
303.15 K, 14567 kPa	979.7
303.15 K, 14592 kPa	979.6
